Results: patent publication US20060009512A1, “5-ht 1b/1d receptor agonists for the treatment of headache resulting from administering an endothelin receptor antagonist” (priority 2002, published 2006)
“Also recorded” adds a separate entry of the source.

Key:
[1] = cancer patients, doses of 20 mg and above; cited from earlier work
[2] = man, recommended dose of 125-250 mg bid; cited from earlier work
[3] = Clinical study of safety and tolerability of multiple doses of ZD4054 in healthy young volunteers; assay type: in vivo, man
Experimental: (§1) A study was undertaken to assess the safety and tolerability of multiple doses of ZD4054 in healthy young volunteers at dose levels of 100 mg, 50 mg and 25 mg daily.
(§2) At the 100 mg dose level 16 volunteers participated (12 active and 4 placebo). They received a 100 mg ZD4054 or placebo single dose and one week later commenced daily dosing. Dosing was stopped within 3-5 days of continuous dosing in the majority of ZD4054 treated subjects due to headache. Of the 12 subjects receiving ZD4054, 10 were additionally given zolmitriptan (2.5 mg tablets) at some stage (in addition to paracetamol and in some cases ibuprofen).
(§3) Note: all subjects received paracetamol (1 g every 4 hours for the first 16 hours post the first dose of ZD4054) on the first day of multiple dosing. Analgesics were given as required.

[4] = Treatment of ZD4054 induced headache in subjects of the clinical study (zolmitriptan, standard analgesics); assay type: in vivo, man; settings: for effect of standard analgesic therapy on ZD4054 induced headaches: subjects with ZD4054 induced headache
Experimental: Based on citations by Carducci (Carducci, 2002) a number of “standard analgesic therapies” were tried, including paracetamol, ibuprofen and codeine to treat the ZD4054 induced headaches.
as §1, §2, §3
An explanation of CTC grades which stands for Common Toxicity Criteria, can be found in a document from the National Institute of Health, Version 2.0, DCTD, NCI, NIH, DHHS March 1998.

In the case of `CCCCN(CCCC)C(=O)CN1C[C@H](c2ccc3c(c2)OCO3)[C@@H](C(=O)O)[C@@H]1c1ccc(OC)cc1` [Atrasentan], the incidence of headache [1] is given as 50-100%.

In the case of `COc1ccccc1Oc1c(NS(=O)(=O)c2ccc(C(C)(C)C)cc2)nc(-c2ncccn2)nc1OCCO` [Bosentan], the “subjects with induced headaches” value [2] is given as 22%.

For `COc1nc(C)cnc1NS(=O)(=O)c1cccnc1-c1ccc(-c2nnco2)cc1` [ZD4054, N-(3-methoxy-5-methylpyrazin-2-yl)-2-(4-[1,3,4-oxadiazol-2-yl]phenyl)pyridine-3-sulphonamide], the “time of continuous dosing until dosing was stopped due to headache” value ([3]; 100 mg daily, majority of ZD4054 treated subjects) was 3 to 5 days and the “induction of headache in man” value ([3]; clinical testing in man) was “induces headaches in man”.

With `COc1ccc2c3c1O[C@H]1[C@@H](O)C=C[C@H]4[C@@H](C2)N(C)CC[C@@]341` [codeine] the “effect of standard analgesic therapy on ZD4054 induced headaches” value (from here on “effect of standard analgesic therapy”) [4] was “several subjects still reported persistent headache”.

In the case of `CC(C)Cc1ccc(C(C)C(=O)O)cc1` (centres unmarked) [ibuprofen], the “effect of standard analgesic therapy” value [4] is reported as “several subjects still reported persistent headache”.

In the case of `CC(=O)Nc1ccc(O)cc1` [paracetamol], the improvement of headache ([4]; Subject 7, CTC grade 2 headache, second day of multiple dosing) is reported as “little improvement”, the “headache grade despite treatment” value ([4]; Subject 10, second day, increased from CTC grade 1) is reported as 3 CTC grade and the “effect of standard analgesic therapy” value [4] is reported as “several subjects still reported persistent headache”.

In the case of `CN(C)CCc1c[nH]c2ccc(C[C@H]3COC(=O)N3)cc12` [zolmitriptan], the “headache grade after treatment” value ([4]; Subject 7, from CTC grade 2 on second day of multiple dosing, 2.5 mg plus 2.5 mg 50 mins later, 1-1.5 hours later) is reported as 1 CTC grade, the “headache grade after treatment” value ([4]; Subject 10, day 3, from CTC grade 3, 2.5 mg plus 2.5 mg 50 mins later, 2.5 h later) is reported as 1 CTC grade and the “headache grade after treatment” value ([4]; Subject 10, second day, from CTC grade 3, 2.5 mg) is reported as 2 CTC grade. For the same molecule, the “patients noting at least at one stage that their headache was alleviated” value ([4]; of 10 subjects given zolmitriptan 2.5 mg tablets, ZD4054 100 mg) was “Seven” and the “effect on intensity/severity of ZD4054 induced headache” value ([4]; subjects in which standard analgesic therapy had failed, 2.5-5 mg orally) was “effective in reducing the intensity of ZD4054 induced headaches in some subjects; also recorded: effective in reducing the severity of headache”.
